# Source: patent US20240182472A1, “INDAZOLE PYRIDONE COMPOUNDS AND USES THEREOF” (Bluejay Therapeutics, Inc., priority 2022, published 2024)
# How the values were obtained:
# [1] = system: HBV S-antigen secretion; experiment: HBsAg assay (HepG2 HBV S-antigen secretion biological assay); format: cell-based; settings: Hepatitis B virus, HepG2.2.15, 72 h, read-out: EC50, HBV S-antigen secretion
# Method: HepG2.2.15 cells were grown in flasks microscopically and seeded into 96-well plates at a concentration of 6.0×10^4 cells/well and incubated at 37° C., 5% CO2 overnight.
# Source plate preparation. The stock concentration of reference compound and test compounds is 20 mM. Firstly, manually diluted the compound to obtain the first concentration points of 10 μM and 200 μM, respectively. Then a 3-fold, 8 points serial dilution is performed to obtain the 200× source plate.
# Source plate compounds were pipetted as follows: 3 μL 200× source plate compounds into sterile 2 mL 96 well plate which contain 297 μL 2% FBS Medium, mix well and transfer 100 μL/well to corresponding cell culture plates. Therefore, the test conditions of the final compounds is 1 μM initiation, 3-fold serial dilution, and 8 concentration points in duplicate.
# Incubate the cells at 37° C., 5% CO2 for three days.
# 24 hours post-seeding, the cells were treated with 200 μl/well of media containing serially diluted compounds in DMSO. DMSO alone was used as the no drug control. The final DMSO concentration in all wells was 0.5%.
# The HBsAg kit (Auto Biology-CL 0310) was used to determine the level of secreted HBVsAg. The HBSAg assay was performed as follows: • a) Blance the ELISA kit at room temperature for 30 minutes. • b) Add 50 μL standard solution, sample, positive and negative control to each well of the microplate in the kit. • c) Add 50 μL HBsAg enzyme conjugate to each well. • d) Attach the plate membrane, oscillate for 60 seconds, and incubate at 37° C. for 60 minutes. • e) Add 350 μL washing buffer to each well, shake slightly, discard liquid, repeat 6 times. Then pat 5 times on an absorbent paper towel to dry the hole. • f) Add 50 μL mixture of reagent A and B to each well. Oscillate the microplate for 10 seconds. • g) Cover the plate membrane and incubate at room temperature for 10 minutes. Read the luminescent signal using Biotek-Synergy 2.
# Compounds inhibition against HBsAg at different concentrations are calculated by the following formula:
# Inhibition %=(1−value of sample/ave. value of control)×100
# 50% effective concentrations (EC50) and were calculated with the GraphPad Prism software.
# [2] = In vivo pharmacokinetic study, oral, plasma and liver, rat; design: species or system Sprague Dawley rats; settings: for Observed level of "active metabolite" AUC0→last, Liver / Observed level of "active metabolite" AUC0→last, Plasma: active metabolite I.6 released after oral prodrug 32 mpk, Sprague-Dawley rats, n = 3; for concentrations of the dosed prodrug itself in plasma and tissue: single PO administration at 32 mg/kg in male SD rats, PK parameters not determined
# Method: The compounds of this invention were tested orally administered in a formulation of 25% PEG 400: 10% solutol: 65% water with a 5 mL/Kg solution across species of CD-1 mice, C57BL/J6 mice, or Sprague Dawley rats following IACUC guidelines. The rat PK of Compound I.9 and Compound I.10 PO dose of 32 mpk exemplifies the methodology used across species.
# The purpose of this rat PK study was to determine the pharmacokinetics of Compound I.9, Compound I.6 and Compound I.10 in plasma following oral gavage administration of Compound I.9 and Compound I.10 to male SD rats. For PO groups, the liver and plasma concentration were measured at 1, 2, 6 and 10 h post-dose. Concentrations of Compound I.9, Compound I.6 and Compound I.10 in plasma and tissue samples were determined by a liquid chromatography tandem mass spectrometry (LC-MS/MS) method. Oral (PO) Dose—Groups 1 and 2 Compound I.9 was prepared as a clear solution in 25% PEG400+10% Solutol+65% water (Adjust the final pH to 7˜8). Groups 3 and 4 Compound I.10 was prepared as a homogeneous suspension in 25% PEG400+10% Solutol+65% water (Adjust the final pH to 7˜8). Blood (about 0.2 mL) was collected at each time point via jugular vein puncture from each study animal into a tube A. The following 4-mix stabilizer for esterase inhibition was added into a pre-chilled commercial tube B containing potassium (K2) EDTA (0.85-1.15 mg) in advance. Then the blood in the tube A will be accurately transferred (4-mix stabilizer: blood, 1:10 (v:v)) into the tube B and placed on wet ice until centrifugation.
# The following 4-mix stabilizer was added into the cold homogenizing buffer (MeOH/15 mM PBS 1:2) in advance. Then each tissue was weighed and added the cold homogenizing buffer with stabilizer at the ratio of 1:9 (1 g tissue with 9 mL buffer), then homogenized on wet ice. The tissue homogenate was kept at −60° C. or lower until LC-MS/MS analysis.
# Bioanalytical Analysis The concentrations of Compound I.9, Compound I.6 and Compound I.10 in plasma and tissue were determined by using an LC-MS/MS method. Instrumentation and conditions for
# Compound I.9, Compound I.10 and Compound I.6 in plasma and tissue homogenate. • LC parameters • Equipment: ACQUITY UPLC System • Analytical column: ACQUITY UPLC HSS T3 1.8 μm 2.1×50 mm • Inject volume: 5 μL for plasma; 3.5 μL for tissue homogenate • Mobile phase A: 0.1% FA & 2 mmol/L HCOONH4 in water/ACN (v/v, 95:5) • Mobile phase B: 0.1% FA & 2 mmol/L HCOONH4 in ACN/water (v/v, 95:5) • Elution Mode: Gradient
# • Mass spectrometer: Triple Quad 6500 plus • Ionization mode: ESI (+) • Detective mode: MRM
SMILES,EC50 [1] [nM],"Observed level of ""active metabolite"" AUC0→last, Liver [2] [ng·h/g]","Observed level of ""active metabolite"" AUC0→last, Plasma [2] [ng·h/g]",concentrations of the dosed prodrug itself in plasma and tissue [2]
"CC(C)(C)[C@@H]1Cn2nc3c(OCCCCCC(=O)O)cccc3c2-c2cc(=O)c(C(=O)O)cn21 [I.1, (R)-6-(tert-butyl)-10-((5-carboxypentyl)oxy)-2-oxo-6,7-dihydro-2H-pyrido[2′,1′:3,4]pyrazino[1,2-b]indazole-3-carboxylic acid]",25.5,–,–,–
"CCOC(=O)CCCCCCOc1cccc2c3n(nc12)C[C@@H](C(C)(C)C)n1cc(C(=O)O)c(=O)cc1-3 [I.3, (R)-6-(tert-butyl)-10-((7-ethoxy-7-oxoheptyl)oxy)-2-oxo-6,7-dihydro-2H-pyrido[2′,1′:3,4]pyrazino[1,2-b]indazole-3-carboxylic acid]",11.8,–,–,–
"CCCCCCCOC(=O)CCCCCCOc1cccc2c3n(nc12)C[C@@H](C(C)(C)C)n1cc(C(=O)O)c(=O)cc1-3 [I.4, (R)-6-(tert-butyl)-10-((7-(heptyloxy)-7-oxoheptyl)oxy)-2-oxo-6,7-dihydro-2H-pyrido[2′,1′:3,4]pyrazino[1,2-b]indazole-3-carboxylic acid]",14,–,–,–
"CCOC(=O)CCCCCCCOc1cccc2c3n(nc12)C[C@@H](C(C)(C)C)n1cc(C(=O)O)c(=O)cc1-3 [I.7, (R)-6-(tert-butyl)-10-((8-ethoxy-8-oxooctyl)oxy)-2-oxo-6,7-dihydro-2H-pyrido[2′,1′:3,4]pyrazino[1,2-b]indazole-3-carboxylic acid]",7.1,–,–,–
"CC(C)OC(=O)CCCCCCCOc1cccc2c3n(nc12)C[C@@H](C(C)(C)C)n1cc(C(=O)O)c(=O)cc1-3 [I.9, (R)-6-(tert-butyl)-10-((8-isopropoxy-8-oxooctyl)oxy)-2-oxo-6,7-dihydro-2H-pyrido[2′,1′:3,4]pyrazino[1,2-b]indazole-3-carboxylic acid]",5.3 ± 0.9,29367,290,most concentrations were below the lower limit of quantitation
"CCCCOC(=O)CCCCCCCOc1cccc2c3n(nc12)C[C@@H](C(C)(C)C)n1cc(C(=O)O)c(=O)cc1-3 [I.10, (R)-10-((8-butoxy-8-oxooctyl)oxy)-6-(tert-butyl)-2-oxo-6,7-dihydro-2H-pyrido[2′,1′:3,4]pyrazino[1,2-b]indazole-3-carboxylic acid]",4 ± 0.8,19444,146,most concentrations were below the lower limit of quantitation
"CC(C)(C)[C@@H]1Cn2nc3c(OCCCCCCCCC(=O)O)cccc3c2-c2cc(=O)c(C(=O)O)cn21 [I.13, (R)-6-(tert-butyl)-10-((8-carboxyoctyl)oxy)-2-oxo-6,7-dihydro-2H-pyrido[2′,1′:3,4]pyrazino[1,2-b]indazole-3-carboxylic acid]",1.2 ± 0.5,–,–,–
